In this experiment the test system is C6 cells. Nature of the experiment: Cell proliferation MTT assay, C6. In kind it is cell-based. Particulars: Rattus norvegicus, 72 h. On the procedure: C6 and U-87MG cell lines were obtained from the American Type Culture Collection (ATCC) and cultured in our laboratory. Rat C6 glioma cells were cultured in F12K nutrient medium (Gibco, Grand Island, […]) supplemented with 15% horse serum (Auckland, NZ), 2.5% fetal bovine serum (FBS), 100 U/mL penicillin, and […] streptomycin (Gibco, Paisley, Scotland, UK). Human U-87MG cells were cultured in minimum essential medium (MEM) supplemented with 10% FBS, 1% nonessential amino acids, 100 U/mL penicillin, and […] streptomycin. Cells were cultured under a humidified atmosphere containing 5% CO2 at 37°C, and medium was changed every 1 to 2 days.
Tumor cells were seeded in 96-well plates at a density of 3500 cells/well. After 24 h in culture, cells were exposed to different concentrations of DMAMCL or medium alone (control) for 72 h. Cell viability was determined by MTT assays. Briefly, MTT regent (0.5 mg/mL) was added to wells, and cells were incubated for 4 h at 37°C. After removing the supernatant, 200 μL of dimethyl sulfoxide (DMSO) (Fluka, Switzerland) was added to dissolve formazan crystals. The absorbance at 570 nm was measured by a microplate reader (Thermo Labsystems, Helsinki, Finland). Control absorbance was taken as 100%. The absorbance of DMAMCL-treated cells was taken as percentage survival. […]
(Tetrazolium assays rely on reduction of a dye to a coloured formazan, in cell work by metabolically active cells.)

SMILES strings stand for the structures. Read-outs that look alike come from different tables or passages of the source.

On to `CC1=C2CC[C@@](C)(O)[C@@H]2[C@H]2OC(=O)[C@@H](CN(C)C)[C@@H]2CC1` [DMAMCL, dimethylaminomicheliolide], for which the IC50 (read-out: IC50) was found to be 27.2 ± 1.89 µM and the IC50 (read-out: x0 (midpoint of logistic fit, Fig 3A) (converted)) is 27.2 ± 1.89 µM.

(Values after publication PMC4320118, “Micheliolide Derivative DMAMCL Inhibits Glioma Cell Growth In Vitro and In Vivo” (PLoS ONE, 2015).)
